Experiment [1] concerns the target T1, Cathepsin B (Homo sapiens, UniProt P07858). In words: Cathepsin B endopeptidase activity, enzyme kinetics with substrate Z-RR-AMC. Format: biochemical. Conditions: endopeptidase activity, substrate Z-RR-AMC, pH 6.0, 37°C. As for the experimental part: The effect of 8-hydroxyquinolines on cathepsin B enzymatic activity was assessed using enzyme kinetics. First, the effect of 8-hydroxyquinolines on cathepsin B endopeptidase activity was assessed using the cathepsin B specific endopeptidase substrate Z-RR-AMC. 5 µl of the Z-RR-AMC (final concentration 60, 180 and 360 µM) and 5 µl of respective compound at increasing concentrations were added to wells of a black microplate. 90 µl of human recombinant cathepsin B was then added to a final concentration of 0.4 nM in activation buffer (100 mM phosphate buffer, pH 6.0 with 0.1 % PEG, 5 mM DTT and 1.5 mM EDTA). All assay mixtures contained a constant amount of DMSO, i.e. 5 %. Formation of fluorescent degradation product was continuously monitored at 380 nm ± 20 nm excitation and […] ± 10 nm emission wavelengths on Tecan Safire^2™ at 37°C. Mechanism and the constant of inhibition (Ki) of cathepsin B endopeptidase activity were determined using the graphical method according to Cornish-Bowden (Cornish-Bowden A: A Simple Graphical Method for Determining the Inhibition Constants of Mixed, Uncompetitive and Non-Competitive Inhibitors. Biochem J 1974, 137:143-4.) and using the SigmaPlot® 11, Enzyme Kinetics Module™ 1.3. Table I. Results of testing the compounds according to Formula (I) on cathepsin B endopeptidase activity.

Experiment [2] concerns MCF-10A neoT cells. In words: Intracellular DQ-collagen IV degradation by flow cytometry. It is filed as cell-based. Particulars: 50 µM, shift in fluorescence intensity. As for the experimental part: Inhibition of intracellular DQ-collagen IV degradation was observed by flow cytometry by a shift in fluorescence intensity. 5 × 10^4 MCF-10A neoT cells in complete medium were plated into the wells of a 24-well plate and allowed to attach over night. Afterwards, the medium was replaced with 500 µl of serum free medium with 5-nitro-8-hydroxyquinoline, CA-074 or CA-074Me (50 µM). After 2 h incubation the medium was again replaced with serum free medium containing inhibitors (50 µM) and DQ-collagen IV (5 µg/ml). DMSO was used as a control. For the experiment only viable cells were selected using propidium iodide. The measurements were performed on a FACS Calibur instrument (Beckton Dickinson, Inc.).

Experiment [3] concerns MCF-10A neoT cells. In words: Extracellular DQ-collagen IV degradation, fluorescence intensity in medium. It is filed as cell-based. Conditions: 3 h, DQ-collagen IV 5 µg/ml. The procedure: Two experiments were set to differentiate between inhibition of intracellular and extracellular DQ-collagen IV degradation. Inhibition of extracellular DQ-collagen IV degradation was observed by monitoring the fluorescence intensity of degraded DQ-collagen IV in the medium in which MCF-10A neoT cells were grown. 5 × 10^4 MCF-10A neoT cells were plated into wells of a 96-well black plate and were allowed to attach over night. Cells were then incubated with 100 µl PBS containing 5-nitro-8-hydroxyquinoline, CA-074 or CA-074Me (10 µM) and DQ-collagen IV (5 µg/ml) for 3 h. Afterwards, the 80 µl of PBS was transferred into the empty wells and the fluorescence intensity was measured at 495 nm ± 5 nm excitation and 515 nm ± 5 nm emission wavelengths on Tecan Safire^2™. The experiment was performed in 8 parallels and DMSO was used as a control.

The target in experiment [4] is T1, Cathepsin B. Conditions: cited from earlier work; for less potent in vitro than parent inhibitor: esterified cell permeable derivatives versus E-64 and CA-074; for inhibit cathepsin B: background.
Experiment [5] deals with T1, Cathepsin B. In words: Reversibility by mass spectrometry (ESI-MS of cathepsin B after incubation and dialysis). It is filed as binding. Particulars: equimolar inhibitor, 1 h room temperature, dialysis. As for the experimental part: Third, reversibility of 5-nitro-8-hydroxyquinoline was also checked with mass spectrometry. Cathepsin B (4.4 µM) was activated in the activation buffer for 5 min at 37 °C. Afterwards, an equimolar amount of the inhibitor was added to the enzyme and incubated for 1 h at room temperature. The mixture was dialyzed against water five times using Microcon Centrifugal Filter Devices YM-10 to avoid salt interferences and to remove unbound molecules of the test compound. Samples were then prepared by adding an equal volume of acetonitrile containing 0.1 % formic acid and analyzed with ESI-MS on an AutoSpec Q instrument. As a positive control CA-074 was used.

Experiment [6] addresses T1, Cathepsin B. In words: Reversibility with active site probe DCG-04 (labelling, SDS-PAGE, blot). Format: binding. Particulars: 0.1, 1, 10 and 50 µM inhibitor, 1 h, then 2 µM DCG-04. The text has this:
Second, the reversibility of 5-nitro-8-hydroxyquinoline was also studied with the active site probe DCG-04. DCG-04 is a derivative of an irreversible epoxysuccinic inhibitor of cysteine proteases E-64 with an additional biotin moiety which enables detection of covalently modified proteases with labelling intensity correlating with enzymatic activity (Greenbaum D, Medzihradszky KF, Burlingame A, Bogyo M: Epoxide electrophiles as activity-dependent cysteine protease profiling and discovery tools. Chem Biol 2000, 7: 569-81.). 1 µg of recombinant cathepsin B in 50 mM Tris, pH 5.5 containing 1 mM DTT, 5 mM MgCl2 and 250 mM sucrose was incubated with 0.1, 1, 10 in 50 µM 5-nitro-8-hydroxyquinoline (diluted from 10 mM DMSO stocks) for 1 h at room temperature. Samples were then labelled with 2 µM DCG-04 for an additional h at room temperature. After boiling in reducing sample buffer for 10 min samples were analyzed by 12.5 % SDS-PAGE and transferred to a nitrocellulose membrane. The latter was then blocked with 0.5 % Tween 20 in PBS overnight at 4 °C and incubated with 1 µg/ml streptavidin-horseradish peroxidase in 0.2 % Tween 20 in PBS for 1 h at room temperature. The membrane was washed five times with 0.2 % Tween 20 in PBS and the spots on the membrane were visualized with 0.5 mg/ml 3,3'-diaminobenzidine and 0.0005 % (v/v) H2O2 in 50 mM Tris, pH 7.5. […]

Entries after “also recorded” stand apart in the source; their conditions may differ.

`O=[N+]([O-])c1cc(CN2CCC(O)CC2)c(O)c2ncccc12` [Compound 5, 7-((4-Hydroxypiperidin-1-yl)methyl)-5-nitro-8-hydroxyquinoline] registered a Ki at Cathepsin B [1] of 130 ± 3.4 µM.
With `CCCNC(=O)[C@H]1O[C@@H]1C(=O)N[C@H](C(=O)N1CCC[C@H]1C(=O)OC)[C@@H](C)CC` [CA-074Me], the “inhibition of intracellular DQ-collagen IV degradation” value in the experiment with MCF-10A neoT cells [2] is on record as “significantly inhibited”. Besides, in the experiment with MCF-10A neoT cells [3] (10 µM), the “inhibition of extracellular DQ-collagen IV degradation” value amounted to 33.8%. Further, the “less potent in vitro than parent inhibitor” value on Cathepsin B [4] is recorded as 100-1000 fold.
Compound `O=[N+]([O-])c1cc(CN2CCCC(O)C2)c(O)c2ncccc12` (racemic) [Compound 8, 7-((3-Hydroxypiperidin-1-yl)methyl)-5-nitro-8-hydroxyquinoline] yielded an inhibitory constant (Ki) on Cathepsin B [1] of 110 ± 3.1 µM.
Same read-out and setting: in the case of `O=C(O)C1CCN(Cc2cc([N+](=O)[O-])c3cccnc3c2O)CC1` [Compound 7, 7-((4-Carboxypiperidin-1-yl)methyl)-5-nitro-8-hydroxyquinoline] it was 89 ± 3.3 µM.
Take `CCOC(=O)[C@H]1O[C@@H]1C(=O)N[C@@H](CC(C)C)C(=O)NCCC(C)C` [Compound E-64d]: the “less potent in vitro than parent inhibitor” value at Cathepsin B [4] was 100-1000 fold.
As for `CN1CCN(Cc2cc([N+](=O)[O-])c3cccnc3c2O)CC1` [Compound 4, 7-((4-Methylpiperazin-1-yl)methyl)-5-nitro-8-hydroxyquinoline], the Ki on Cathepsin B [1] was 75.6 ± 4 µM.
Still for that read-out and setting: in the case of `O=[N+]([O-])c1cc(CN2CCCC2)c(O)c2ncccc12` [Compound 3, 7-(Pyrrolidinomethyl)-5-nitro-8-hydroxyquinoline] it was 118 ± 3.1 µM.
As for `CCCNC(=O)[C@H]1O[C@@H]1C(=O)N[C@H](C(=O)N1CCC[C@H]1C(=O)O)[C@@H](C)CC` [CA-074], the “change of mass of the enzyme” value at Cathepsin B [5] is 384 Da. Further, the “inhibition of intracellular DQ-collagen IV degradation” value in the experiment with MCF-10A neoT cells [2] is recorded as “only slightly inhibited; also recorded: did not”. This compound yielded an inhibition at 10 µM in the experiment with MCF-10A neoT cells [3] (Homo sapiens, MCF-10A-neoT) of 31.1%. On Cathepsin B [4], the “inhibit cathepsin B” value is “nanomolar range”. The “intensity of spots (DCG-04 labelling) versus DMSO control” value at Cathepsin B [6] is “concentration dependent loss of spot intensity”.
For the compound `CC(C)C[C@H](NC(=O)[C@H]1O[C@@H]1C(=O)O)C(=O)NCCCCN=C(N)N` [Compound E-64], on Cathepsin B [4], the “inhibit cathepsin B” value was “nanomolar range”.
At Cathepsin B [1], `O=[N+]([O-])c1cc(CN2CCOCC2)c(O)c2ncccc12` [Compound 2, 7-(Morpholinomethyl)-5-nitro-8-hydroxyquinoline] gave a Ki of 119 ± 4.2 µM.
The same measure, in the same setting: next, `CC1CCN(Cc2cc([N+](=O)[O-])c3cccnc3c2O)CC1` [Compound 6, 7-((4-Methypiperidin-1-yl)methyl)-5-nitro-8-hydroxyquinoline]: 130 ± 3.5 µM.

Source of the values: patent EP2353599A1, “8-hydroxyquinolines as inhibitors of cathepsin B” (University of Ljubljana, priority 2010, dated 2011).
